Entries after “also recorded” stand apart in the source; their conditions may differ.
What was measured:
cells in tissue culture = experiment: Toxicity to cells in tissue culture; assay type: cell-based
Akt [1] = experiment: Western blot analysis of Akt phosphorylation in SQ2OB head-and-neck cancer cell line; assay type: cell-based, human; details: SQ2OB cells, 25 μM saquinavir, within 20 minutes, Western blot (FIG. 3)
From the text: Using Western blot analysis, a human head-and-neck cancer cell line, SQ2OB, containing a constitutively-active EGFR receptor and thus, increased signaling through PI3K, was examined for Akt phosphorylation.

Akt [2] = experiment: Western blot of Akt phosphorylation in white blood cells of HIV patients; assay type: in vivo, human; details: HIV patients taking saquinavir vs HIV patients not using saquinavir
From the text: As a proof of principle, it was examined whether there was down-regulation of Akt in HIV patients who are being actively treated with HPIs. Blood samples were obtained from HIV patients on courses of various combinations of drugs. WBCs were isolated and stained for Akt using a Western Blot.

T24 cells = experiment: Clonogenic assay, radiation sensitization (surviving fraction after 2 Gy); assay type: cell-based
Protocol: Cultures of cells in log growth phase were counted and plated in 60-mm dishes containing 4 ml of media. The cells were allowed to attach and saquinavir was added to cultures at least one hour prior to irradiation. Cells were irradiated with a Mark I cesium irradiator (J. L. Shepherd, San Fernando, Calif.) at a dose rate of 1.6 Gy/min. Colonies were stained and counted 10-14 days after irradiation. A light box was used to assist in counting colonies. The surviving fraction was calculated by dividing the number of colonies formed by the number of cells plated times plating efficiency (Table 1). Each point value represents the mean surviving fraction from at least six replicate dishes.

CC(C)(C)NC(=O)[C@@H]1C[C@@H]2CCCC[C@@H]2CN1C[C@@H](O)[C@H](Cc1ccccc1)NC(=O)[C@H](CC(N)=O)NC(=O)c1ccc2ccccc2n1 [saquinavir] was tested. Which “toxicity to cells in tissue culture” value (cells in tissue culture) did it give?
Its value is “toxic to cells in tissue culture”.

What about the “Akt phosphorylation at Ser 473 and at Thr 308” value (Akt [1]) of the same compound?
The value was “down-regulation of Akt phosphorylation at Ser 473 and at Thr 308”.

And the “Akt phosphorylation in white blood cells” value (Akt [2])?
The value was “decreased Akt phosphorylation; also recorded: lower levels of Akt phosphorylation”.

What about the “difference in cell kill (enhanced kill) vs radiation alone” value (T24 cells; T24, 30 fractions of 2 Gy) of the same compound?
Its value is about 5 log.

And the “surviving fraction after 2 Gy (SF2)” value (T24 cells; T24 cells, 10 μM saquinavir + 2 Gy radiation, control 56%)?
The value was 36%.

What about the “saquinavir SF2” value (T24 cells; T24 cells, saquinavir added at least one hour prior to irradiation, colonies counted 10-14 days after, mean of at least six dishes, control 0.560 +/− 0.061) of the same compound?
Its value is 0.380 +/− 0.168.

Reference: patent US20060116397A1, “Use of saquinavir as a radiation sensitizer” (The Trustees of the University of Pennsylvania, priority 2004, published 2006)
